The structures appear in SMILES notation. “And” between values parts separate entries of the source, which are not always exact repeats. Equal values may be shown once. “Also recorded” adds a separate entry of the source. Read-outs that look alike come from different tables or passages of the source.

The conditions of data set [1]: cited from earlier work.
The nature of data set [2]: Randomized Phase 2 Study OGX-011-03, custirsen plus docetaxel vs docetaxel. The settings on record: per arm.
In data set [3] the test system is RPMI 8226 (human myeloma) xenograft. As to the kind of experiment: In vivo activity of custirsen with Velcade, RPMI 8226 xenograft (Example 14). Conditions: for efficacy (tumor growth), in words: Velcade 0.5 mg/kg iv; for Day 27 Δ volume / Day 34 Δ volume / Day 41 Δ volume / Day 45 Δ volume: vs Day 20. The protocol: The cells were implanted subcutaneously into female SCID mice with 7×10^6 cells inoculum.
Tumors and body weights were measured weekly until termination of the study on day 71. Response to treatment was evaluated for tumor growth inhibition (TGI) and tumor growth delay (TGD).
70 CB.17 SCID female mice, 4-6 weeks old, 16-20 grams, obtained from Harlan animal breeding center.
Sample from the cell suspension was taken for counting (0.3 ml in duplicates for CEDEX) before spun down. Cell viability was 85.6% and live cell concentration was 167×10^5 cells/ml. The pellet was resuspended in HBSS to a final volume of 8 ml.
Tumors were implanted subcutaneously with RPMI-8226 cells into the right flank of the mouse on Day 0. Each animal received a s.c. injection 7×10^6 cells in 0.1 ml suspension. On day 20, mice were sorted by the optimal tumor volume ([…]) and were allocated into 5 groups of 10 mice. Mice were individually tagged and their tumor volume and body weight were monitored weekly during the study. Tumor size was measured by caliper and calculated using the formula: […]
The treatment started on […] (0.2 ml per 20 grams v/w) and continued till day 52, after which the remaining mice were left for observation until day 71.

The mark [4] stands for this setting: Velcade 0.5 mg/kg iv biwk, Day 48, individual mice.
Where [5] appears, read: Velcade 0.5 mg/kg iv biwk, Day 51, group mean.
[6] abbreviates: Velcade 0.5 mg/kg iv biwk, Day 51, individual mice.
Where [7] appears, read: Velcade 0.5 mg/kg iv biwk, day 51.
Setting [8] is: Velcade 0.5 mg/kg iv biwk, earlier day (day not given), group mean, tumor.
Where [9] appears, read: Velcade 0.5 mg/kg iv biwk, earlier day (day not given), individual mouse, tumor.
[10] abbreviates: Velcade 0.5 mg/kg iv biwk, group Mean, n 10.
The mark [11] stands for this setting: Velcade 0.5 mg/kg iv biwk, individual mouse.
The mark [12] stands for this setting: Velcade 0.5 mg/kg iv biwk, later day (day not given), group mean, tumor.
Where [13] appears, read: Velcade 0.5 mg/kg iv biwk, later day (day not given), individual mouse, tumor.

As to `CC(=O)O[C@@]12CO[C@@H]1C[C@H](O)[C@@]1(C)C(=O)[C@H](O)C3=C(C)[C@@H](OC(=O)[C@H](O)[C@@H](NC(=O)OC(C)(C)C)c4ccccc4)C[C@@](O)([C@@H](OC(=O)c4ccccc4)[C@H]21)C3(C)C` [Docetaxel], the “grade 4 neutropenia (<500 cells/mm^3), patients” value is listed as 75% in data set [1] (60 mg/m^2) and 85% in data set [1] (100 mg/m^2). Further, the “neutropenia (<2,000 neutrophils/mm3), occurrence” value in data set [1] (60-100 mg/m^2) was “virtually all patients”. For the same molecule, the “incidence of elevated creatinine (primarily grade 1/2)” value in data set [2] was determined as 5%.

On to `CC(C)C[C@H](NC(=O)[C@H](Cc1ccccc1)NC(=O)c1cnccn1)B(O)O` [Velcade®, Bortezomib, reference compound], for which the “efficacy (tumor growth), in words” value in data set [3] was “moderate but not statistically significant efficacy; also recorded: moderate and not statistically significant effect”. This molecule came in with a volume in data set [3] (Velcade 0.5 mg/kg iv biwk, Day 48, group mean) of 749.8. For the same molecule, in data set [3] (setting [4]), the volume was 520 and 868 and 757 and 647 and 687 and 470 and 1151 and 789; the Δ volume is 401.6 and 745.2 and 624.2 and 508.9 and 919.1 and 403.8 and 310.7 and 988.8 and 625.7. For the same molecule, in data set [3] (setting [5]), the volume was 1027.5 and the Δ volume was determined as 884.2. For the same molecule, in data set [3] (setting [6]), the volume is 767 and 1043 and 1313 and 774 and 1432 and 917 and 1635 and 1195; the Δ volume is 648.2 and 920.6 and 1179.9 and 636.4 and 1291.7 and 474.1 and 768.2 and 418.7 and 1473.4 and 1031.3. Also, in data set [3] (setting [7]), the “% TGI day 51” value worked out at 28%, the “No. of CR” value is 0, the “No. of PR” value was determined as 0 and the “No. of TRD” value is reported as 0. Further, in data set [3] (setting [7]), the “No. og nTRD” value was 0 and the “Δ mean tumor volume, (mean ± se)” value is reported as 884 ± 356. Besides, in data set [3] (setting [8]), the volume was determined as 1366.1 and the Δ volume was 1224.9. In data set [3] (setting [9]), the volume is 1019 and 1659 and 1885 and 779 and 2196 and 721 and 1500 and 885 and 1651; the Δ volume is 900.3 and 1536.1 and 1752.5 and 640.9 and 2055.5 and 1351.3 and 724.9 and 1487.1. Besides, in data set [3] (setting [10]), the “Day 20 volume” value was determined as 143.2, the “Day 27 volume” value is listed as 213.1, the “Day 34 volume” value came out at 251.6 and the “Day 41 volume” value is 422.8. Further, in data set [3] (setting [10]), the “Day 27 Δ volume” value is 69.9, the “Day 34 Δ volume” value stood at 108.3, the “Day 41 Δ volume” value stood at 279.5 and the “Day 45 Δ volume” value stood at 431.8. Further, in data set [3] (setting [11]), the “Day 20 volume” value was 133 and 138 and 141 and 145 and 149 and 160 and 162 and 164; the “Day 27 volume” value is 225 (2×) and 260 and 235 and 253 and 206 and 231 and 149 and 185 and 162; the “Day 34 volume” value is 185 and 232 and 255 and 286 and 266 and 285 and 272 and 162 and 343 and 230; the “Day 41 volume” value was 289 and 481 and 501 and 387 and 491 and 443 and 475 and 269 and 528 and 384. Also, in data set [3] (setting [11]), the “Day 45 volume” value is 430 and 667 and 507 and 733 and 495 and 663 and 351 and 744; the “Day 27 Δ volume” value is 137.0 and 102.2 and 115.3 and 65.3 and 85.8 and −0.6 and 25.6 and 63.7 and −2.2; the “Day 34 Δ volume” value is 66.0 and 109.0 and 148.3 and 140.0 and 2.9 and 181.4 and 65.9; the “Day 41 Δ volume” value was 170.3 and 358.8 and 368.2 and 249.1 and 349.9 and 297.3 and 325.8 and 109.0 and 366.6 and 200.2. Besides, the “Day 45 Δ volume” value in data set [3] (setting [11]) was 311.5 and 488.4 and 368.7 and 350.1 and 514.1 and 191.8 and 374.8. In data set [3] (setting [12]), this molecule showed a volume of 1236.8 and a Δ volume of 1096.4. In data set [3] (setting [13]), the volume is 1484 and 881 and 1166 and 1417; the Δ volume is 1365.3 and 742.6 and 1020.7 and 1257.1. Moreover, the “efficacy (tumor growth), in words” value in data set [3] (listed as Velcade) is reported as “moderate”.

The record behind these values is US9364496B2 (ONCOGENEX TECHNOLOGIES INC., priority 2013, dated 2016).
